For orientation: inhibition means the drop in the measured response relative to a control, in per cent. The EC50 is the concentration needed to bring the measured effect to its halfway point. By IC50 is commonly meant the concentration at which inhibition is half-maximal.

These results are taken from US12421206B2, “Aryl-n-aryl derivatives for treating a RNA virus infection” (ABIVAX, priority 2018, dated 2025).

The test system of test [1] is Chikungunya Virus (CHIKV) strain LR2006-OPY1 with GFP modification (CHIK 5'LR). As to the kind of experiment: microbe, parasite or virus in culture. It counts as cell-based. As to conditions: HEK-293T, infected HEK293T cells; for inhibition at 1 µM: compounds at 1 μM, MOI 0.1, 22 h, mean of 2 experiments, values above 100 lowered to 100, read-out: % CHIKV Inhibition Mean (n = 2); for IC50: second round of experiments, range stated for listed compounds, read-out: IC50 (CHIKV inhibition). As for the experimental part: The ability of the compounds to inhibit viral replication was assessed with an experiment in which infected cells were treated by compounds of formula (Ie) at 1 μM. As a positive control for inhibition of Chikungunya, Ribavirin was used. Toxicity of the compounds was assessed in parallel.
Human embryonic kidney cells 293T (HEK293T, CRL-11268) were maintained in Dulbecco's modified Eagle's Medium (DMEM, 31966-021, Thermo Fisher Scientific) supplemented with 10% of fetal bovine serum (FBS), penicillin and streptomycin. After removal of the medium, cells were washed with Ca^2+ and Mg^2+-free salt solution to remove all traces of serum. After aspiration of wash solution, cells were dissociated with 0.25% Trypsin-EDTA solution and incubated 30 s at least in 37° C. incubator. Concentration of cell suspension was determined by an automatic cell counter (EVE, NanoEntek) and, if needed, adjusted to 0.33×10^6 cells/mL with DMEM medium supplemented with 10% FBS.
100 μL of the cell suspension were dispatched in a ViewPlate-96 Black (6005182, PerkinElmer) and in a transparent 96-well cell culture plate (655180, Greiner bio-one). After an incubation for 24 h at 37° C. under 5% of CO2, compounds were added at the proper concentration.
An intermediate dilution was prepared with DMSO (D8418, Sigma) at 2 mM in a 96-well V-bottom microplate from the stock solution:
Mix 1 μL of the 50 mM stock library in 25 μL of DMSO.
Mix 2 μL of the 25 mM stock library in 25 μL of DMSO.
An intermediate dilution was prepared with DMSO (D8418, Sigma) at 25 mM in a 96-well V-bottom microplate from the stock solution:
Mix 2 μL of the 50 mM stock library in 2 μL of DMSO.
Perform serial dilution in 2 μL of DMSO 13 times to reach 0.0015 mM. Proceed as follows in table III:
For both screen and determination of IC50, 1 μL of each solution was added in a 1 mL Masterblock 96 wells (Greiner bio-one, 780261) containing 1 mL of DMEM medium. As a positive control, 5 μL of a 80 mM Ribavirin solution (R9644, Sigma) is added to 1 mL of DMEM. On the other hand, DMSO is used as a negative control.
[…]. Vector Borne Zoonotic Dis. 2006; 6(4)). This modified virus was used to infect cells at MOI 0.1. […].
Medium was removed after 22 h at 37° C. under 5% of CO2 and cells were washed as described above. 60 μL of RIPA buffer (50 mM Tris-HCl pH8, 100 mM NaCl, 1 mM MgCl2, 1% Triton X-100) was added to cells and incubated for at least 20 min before reading fluorescence signal. Pierce 660 nm Protein Assay Reagent (22660, Thermo scientific) was used to normalize fluorescence signal by protein quantity.
• A first round of experiments has been performed wherein the results are expressed as inhibition percentage, which is calculated as follows, through the following steps: • 1. Fluorescence intensity (FI)/Absorbance 660 nm (A660)=A
This ratio allows considering the infection (GFP virus) to the protein amount. • 2. A′=A−background noise of non-infected plate, • 3. B=Fluorescence intensity (FI)/Absorbance 660 nm (A660) of infected but non treated plates, • 4. C=A′/B, which is then converted as the percentage of infection after treatment, compared to non-treated sample, and subsequently as the infection percentage. For instance, a value of 100 in Table IV here below means that, after treatment, the signal attributed to GFP fluorescence is abolished, which is correlated to the absence of infection. • 5. C′=100−C
This value corresponds to the inhibition's percentage.
The following Table IV encompasses said C′ value for some compounds, as calculated above with a mean of 2 experiments, and corresponding standard deviation.
Some values were originally above 100. In these cases, the value has been lowered to 100. This means that some molecules also have an impact on the viability of the cells. In other words, the A value may be lower than the background noise.
Moreover, for each measure, the test was performed with Ribavirin as control. The value of the inhibition percentage was checked, giving 100%.

The subject of a further test is RSV A2. As to the kind of experiment: RSV inhibition (cytopathic effect inhibition) using Viral ToxGlo assay in HEp-2 cells. The conditions noted are these: human respiratory syncytial virus, RSV A2, MOI 0.5, HEp-2 cells, 72 h p.i. It counts as cell-based. Summed up: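 HEp-2 cells in EMEM with 2% FBS were infected with RSV A2 at MOI 0.5 immediately after compound (≤1% DMSO) and incubated 72 h at 37 °C. Viral ToxGlo luminescence gave % cytopathic effect inhibition versus virus control, plus cytotoxicity versus cell control; EC50 derived from dose-response.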
A general note: Cytopathic effects are the visible damage that an infection or toxin causes in cultured cells.

The next test deals with DENV-2 strain 16681. As to the kind of experiment: DENV-2 inhibition (cytopathic effect inhibition) using Viral ToxGlo assay in A549 cells. It counts as cell-based, Dengue 2 virus. As to conditions: Dengue virus, DENV2, 120 h, compounds at 10 μM, MOI 0.5, 5 days p.i., read-out: % DENV-2 Inhibition Mean (n = 3). The protocol:
Protocol for Screening Antiviral Compounds for DENV-2 Inhibition and Cytotoxicity Using Viral ToxGlo Assay
A549 cells were maintained in Dulbecco's Modified Eagle Medium (DMEM) supplemented with 10% fetal bovine serum, 100 U/ml penicillin and 100 μg/ml streptomycin. For the purposes of the screening assay they were grown to 90% confluency, trypsinized and recovered. The trypsin was neutralised with cell culture media and cells were centrifuged at 150×g for 5 minutes before discarding the supernatant and resuspending cell pellet in assay media (DMEM supplemented with 2% fetal bovine serum and 100 U/ml penicillin and 100 μg/ml streptomycin). The cells were seeded into 96-well white clear-bottomed cell culture plates at a density of 1.0×10^4 cells/well in 50 μl. For the media/background control column assay media only was added. Cell plates were placed in a humid chamber and incubated overnight at 37° C./5% CO2. After overnight incubation cells were checked for confluency and healthy appearance.
Test compounds were prepared at a final concentration of 10 μM in a maximum DMSO concentration of 1% (final assay concentration maximal 0.1% DMSO) and added to the cell plates in volumes of 10 μl. For cell control and virus control wells the test article solvent only was added. As a positive inhibition control, 7-Deaza-2′-C-methyladenosine was added at 100 μM in 3 wells. Virus (DENV-2 strain 16681) or assay media for cytotoxicity test wells and media/cell control wells was added immediately after test articles at an MOI of 0.5, 40 for 96 well plates respectively. Virus suspension was prepared by thawing DENV-2 frozen stocks and diluting to the required concentration of plaque forming units in assay media.
Cell plates were further incubated inside a humid chamber for 5 days p.i at 37° C./5% CO2. After the incubation period cells were observed under the microscope to check for characteristic cytopathic effect in virus control wells and healthy cells in the cell control wells. After plates were adjusted to room temperature 20 μl Viral ToxGlo (Promega) was added to each well of the 96-well cell plates. Plates were incubated at room temperature for 5 minutes before measuring the luminescence on a spectrophotometer (Envision, PerkinElmer).
DENV-2 inhibition was calculated as percentage of cytopathic effect inhibition relative to the virus control and cytotoxicity as percentage of cell survival relative to cell control wells.

Consider `O=C(NCCC1CCCC1)c1cccc(Nc2ccc(OCc3ccccn3)cc2)c1` [Compound 36, N-(2-cyclopentylethyl)-3-((4-(pyridin-2-ylmethoxy)phenyl)amino)benzamide], for which the inhibition at 1 µM in test [1] stood at 99%. The EC50 in the test on RSV A2 stood at 232 nM. As for `CC(C)CCNC(=O)c1cccc(Nc2ccc(OCc3ccccn3)cc2)c1` [Compound 37, N-isopentyl-3-((4-(pyridin-2-ylmethoxy)phenyl)amino)benzamide], in test [1], the inhibition at 1 µM was found to be 100%. Consider `Cc1cc(OCc2ccccn2)ccc1Nc1cccc(C(=O)NCCC2CCCC2)c1` [Compound 39, N-(2-cyclopentylethyl)-3-((2-methyl-4-(pyridin-2-ylmethoxy)phenyl)amino)benzamide], for which the inhibition at 1 µM in test [1] worked out at 98%. Further, the concentration for a half-maximal effect (EC50) in the test with RSV A2 was 185 nM. With `Cc1cc(Nc2cccc(C(=O)NCCC3CCCC3)c2)ccc1OCc1ccccn1` [Compound 40, N-(2-cyclopentylethyl)-3-((3-methyl-4-(pyridin-2-ylmethoxy)phenyl)amino)benzamide], the inhibition at 1 µM in test [1] is 99%. In the test with DENV-2 strain 16681, the inhibition at 10 µM turned out to be 71%. Regarding `O=C(NCCC1CCCC1)c1cccc(Nc2ccc(OCc3ccccn3)nc2)c1` [Compound 41, N-(2-cyclopentylethyl)-3-((6-(pyridin-2-ylmethoxy)pyridin-3-yl)amino)benzamide], the inhibition at 1 µM in test [1] was determined as 99%. Consider `COc1cc(Nc2cccc(C(=O)NCCC3CCCC3)c2)ccc1OCc1ccccn1` [Compound 43, N-(2-cyclopentylethyl)-3-((3-methoxy-4-(pyridin-2-ylmethoxy)phenyl)amino)benzamide], for which, in test [1], the inhibition at 1 µM was determined as 100%. Besides, the inhibition at 10 µM in the test on DENV-2 strain 16681 came to 71%. As to `Cc1cc(OCc2ccccn2)ccc1Nc1cccc(C(=O)NCCC2CCCCC2)c1` [Compound 47, N-(2-cyclohexylethyl)-3-((2-methyl-4-(pyridin-2-ylmethoxy)phenyl)amino)benzamide], the inhibition at 1 µM in test [1] was 96%. In addition, the concentration for a half-maximal effect (EC50) in the test with RSV A2 was determined as 182 nM. As to `O=C(NCCC1CCC1)c1cccc(Nc2ccc(OCc3ccccn3)cc2)c1` [Compound 48, N-(2-cyclobutylethyl)-3-((4-(pyridin-2-ylmethoxy)phenyl)amino)benzamide], in test [1], the inhibition at 1 µM worked out at 98%. In the test with DENV-2 strain 16681, the inhibition at 10 µM was 110%.

Consider `O=C(NCCC1CC1)c1cccc(Nc2ccc(OCc3ccccn3)cc2)c1` [Compound 49, N-(2-cyclopropylethyl)-3-((4-(pyridin-2-ylmethoxy)phenyl)amino)benzamide], for which, in test [1], the inhibition at 1 µM was 98%. The inhibition at 10 µM in the test with DENV-2 strain 16681 is 111%. Take `O=C(NCCC1CCCC1)c1cccc(Nc2ccc(OCc3ccccc3F)cc2)c1` [Compound 50, N-(2-cyclopentylethyl)-3-((4-((2-fluorobenzyl)oxy)phenyl)amino)benzamide]: in test [1], the inhibition at 1 µM was 100%. Turning to `N#Cc1ccccc1COc1ccc(Nc2cccc(C(=O)NCCC3CCCC3)c2)cc1` [Compound 51, 3-((4-((2-cyanobenzyl)oxy)phenyl)amino)-N-(2-cyclopentylethyl)benzamide], the inhibition at 1 µM in test [1] worked out at 100%. On the same count and under the same terms, for `O=C(NCCC1CCCC1)c1cccc(Nc2ccc(OCc3ccccc3)cc2)c1` [Compound 52, 3-((4-(benzyloxy)phenyl)amino)-N-(2-cyclopentylethyl)benzamide] the value was 99%.

Turning to `O=C(NCCC1CCCC1)c1cccc(Nc2ccc(OCc3ccccn3)c(O)c2)c1` [Compound 53, N-(2-cyclopentylethyl)-3-((3-hydroxy-4-(pyridin-2-ylmethoxy)phenyl)amino)benzamide], the IC50 in test [1] lay within 1 to 400 nM. On to `Cc1cc(OCc2ccccn2)ccc1Nc1cccc(C(=O)NCCC(C)C)c1` [Compound 54, N-isopentyl-3-((2-methyl-4-(pyridin-2-ylmethoxy)phenyl)amino)benzamide], for which, in test [1], the IC50 lay within 1 to 400 nM. Further, the 50% effective concentration (EC50) with RSV A2 was determined as 177 nM.

As to `CCc1cc(OCc2ccccn2)ccc1Nc1cccc(C(=O)NCCC(C)C)c1` [Compound 57, 3-((2-ethyl-4-(pyridin-2-ylmethoxy)phenyl)amino)-N-isopentylbenzamide], in test [1], the 50% inhibitory concentration (IC50) lay within 1 to 400 nM. Also, the EC50 in the test with RSV A2 is 26 nM. On to `CCc1cc(OCc2ccccn2)ccc1Nc1cccc(C(=O)NCCC2CCCC2)c1` [Compound 58, N-(2-cyclopentylethyl)-3-((2-ethyl-4-(pyridin-2-ylmethoxy)phenyl)amino)benzamide], for which the IC50 in test [1] fell in the range of 1 to 400 nM. Turning to `Cc1cc(OCc2ccccn2)ccc1Nc1cccc(C(=O)NCCC2CC(F)(F)C2)c1` [Compound 70, N-(2-(3,3-difluorocyclobutyl)ethyl)-3-((2-methyl-4-(pyridin-2-ylmethoxy)phenyl)amino)benzamide], in test [1], the IC50 fell in the range of 1 to 400 nM. Also, the EC50 with RSV A2 was determined as 660 nM. In the case of `Cc1cc(OCc2ccccn2)ccc1Nc1cccc(C(=O)NC2CCCC2)c1` [Compound 71, N-cyclopentyl-3-((2-methyl-4-(pyridin-2-ylmethoxy)phenyl)amino)benzamide], the IC50 in test [1] is 1 to 400 nM. In addition, the EC50 in the test with RSV A2 worked out at 185 nM.

`c1ccc(COc2ccc(Nc3cccc(OCCCC4CCCC4)c3)cc2)nc1` [Compound 73, 3-(3-cyclopentylpropoxy)-N-(4-(pyridin-2-ylmethoxy)phenyl)aniline]: the inhibition at 1 µM in test [1] turned out to be 100%.
